Measured values: patent publication US6331565A, “Dicaffeoylquinic acid for treating hepatitis B and the diseases associated with retrovirus, and the new caffeoylquinic acid derivatives” (Institute of Radiation Medicine Academy of Military Medical …, priority 1996, dated 2001)
Read-outs that look alike come from different tables or passages of the source.

Assays:
HIV-1 RT = test system: HIV-1 RT
Protocol: (§1) MT4 cells in culture were counted by trypan blue exclusion method. The MT4 cells suspended in a small volume of RPMI-1640 medium without FCS and infected with HIV-1 at 200 TCID50 viruses per 10^6 cells. The mixture of MT4 cells and virus was subsequently incubated at 37° C. in a humidified atmosphere of 5% CO2 for 1 hr to allow virus to adsorbed to cells. Unabsorbed viruses were then removed by washing one with […] of the fresh medium and centrifuged at 1000 rpm for ten minutes. The cells were suspended in the medium and distributed into 12-well microculture plates (10^6 cells/3 ml/well). […] After 4-day incubation at 37° C. in a humidified atmosphere containing 5% CO2 the medium was aspirated and the fresh medium containing the same concentration of drug was added.
The presence of HIV-1 RT in the supernatants of infected, drug-treated and infected, no drug treated MT4 cell culture was assayed. Cell culture fluids was clarified at 1000 rpm for 10 minutes to remove cellular debris. The supernatant samples (20 μl) in duplicate transferred to 5 ml plastic Falcon tubes, 10 μl of virus solubilization buffer [0.5% Triton X-100 in 0.8 M NaCl, 0.5 mM phenylmethysulfonyfluoride, 20% (v/v) glycerol and 50 mM Tris-HCl, pH 7.8] were then added to solubilize the viral particles in the supernatant samples and to release RT located in the viral core. 170 μl of reaction mixture (cocktail I) [52 mM Tris-HCl (pH 7.8), 10 mM MgCl2, 2 mM dithiothreitol, 5 μg of poly(rA)-oligo(dT)per ml. 83 μg of dATP per ml, and 3 μCi of [^3 H]TTP per ml] was then added and incubated at 37° C. for 2 hr. The incorporation of [^3 H]TTP into DNA with poly(rA)-olgio(dT) template primer by viral RT was assessed by trichloroacetic (TCA) precipitation and filtered over a […] diameter glass fiber filter. […] of cold 10% TCA was added to precipitate DNA. The precipitate DNA was then collected on the filters in a Millipore sampling manifold, and was washed with additional 5 volumes of 5% TCA and 2 volumes of 70% ethanol. Radioactivity of the DNA on the filters was determined by a scintillation counter.

DHBV = test: anti-DHBV test in ducks (serum DHBV DNA dot blot); type: in vivo, DHBV in Peking (Beijing) ducks
Protocol: One-day-old ducklings were infected with a 200 μl intravenous injection of DHBV-positive serum containing 10^11 viral genome equivalents per milliliter. Treatment began when ducklings were 7 days old. A total 89 seven-day-old viraemic ducks were distributed at random into five groups. […] Post-treatment follow-up was carried over a period of 5 days. Blood samples were obtained repectively from the leg vein of all ducks and stored at -70° C. after serum separation, prior to treatment, weekly during the treatment, and for 5 days after cessation of treatment. They were screened for presence of DHBV DNA by dot blot hybridization.
DHBV DNA in serum was analyzed by molecular hybridization using full length DHBV DNA clones in PB325. The DHBV DNA insert was purified by agarose gel electrophoresis after digestion with EcoRI. The DHBV DNA was radiolabeled with α^32 P-dCTP random oligopriming with Klenow fragment. Dot blot hybridization was carried out by the method of Scotto et al. Briefly, an aliquot (200 μl) serum was spotted onto a nylon membrane (Hybond-N, Amersham International, England) in dot blot manifold and denatured with 0.5 M NaOH--NaCl at room temperature for 30 min. Each spotted sample was neutralized in 1M Tris.HCl-1.5M NaCl (pH8.0). The DNA on the membrane was fixed by heating at 80° C. for 2 h, and prehybridization at 37° C. overnight in 50% formamide, 5×Denhardt's, 6×SSC,[…], 0.5% SDS and 10 mg/ml of calf thymus DNA. Hybridization was initiated by adding DHBV [^32 P] DNA probes at 10^6 cpm/ml at the same prehybridization conditions overnight. The membrane was washed in 3×SSC-0.1% SDS at room temperature, 42° C. and 65° C. for 10 min respectively. After hybridization the membranes were air-dried and exposed for periods of up to 14 days at -70° C. with Kodak film with an enhancer screen. The amount of viral DNA were assayed by both densitometry and image analysis of autoradiographic membranes.

HIV-1 = test: microbe, parasite or virus in culture; details: Human immunodeficiency virus 1, MT4, in Homo sapiens, 168 h
Protocol: A human T-cell leukemia cell line. MT4 cells, was used in this study. It was maintained in RPMI-1640 medium supplemented with 10% FCS. 100 U/ml of penicillin, and 100 μg/ml of streptomycin at 37° C. in a humidified atmosphere of 5% CO2. Cell cultures were split into fresh medium every 4 days.
HIV-1 virus was propagated in MT4 cells. The cell-free supernatants of HIV-1 infected MT4 cell culture were used as virus stocks and frozen at -80° C. until used. The 50% tissue culture infected dose (TCID50) of the cell-free virus stock was determined by end-point titration with MT4 cells in 96-well microdilution plates.
After 4 h, 100 μl of solvent (10% Triton X-100 and 0.4% HCl isopropanol)was added to cultures to solubilizes formazan. After an overnight incubation, the absorbency of each well was measured using a microplate reader (Bio-Rad, model 450) at 560 nm.
as §1
After 7-day incubation the viable cells was evaluated by MTT method as described above.

## O=C(/C=C/c1ccc(O)c(O)c1)OC1CC(OC(=O)/C=C/c2ccc(O)c(O)c2)(C(=O)O)CC(O)C1O (stereo not shown) [Compound A, 1,5-di-O-caffeoylquinic acid]
HIV-1 RT
  IC50, RT in MT4 cells infected with HIV: 17.1 µg/mL
HIV-1 RT; 1 μg/ml
  Inhibitory rate(%): 22.8 ± 1.9%
  cpm: 6051 ± 91 cpm
HIV-1 RT; 10 μg/ml
  Inhibitory rate(%): 45.4 ± 0.8%
  cpm: 4283 ± 89 cpm
HIV-1 RT; 100 μg/ml
  Inhibitory rate(%): 68.7 ± 0.5%
  cpm: 2456 ± 54 cpm
HIV-1 RT; 1000 μg/ml
  Inhibitory rate(%): 80.5 ± 1.5%
  cpm: 1528 ± 89 cpm
DHBV; 50 mg.kg of body weight^-1.day^-1
  inhibition of DHBV DNA: strange inhibition of DHBV DNA
DHBV; 50 mg.kg of body weight^-1.day^-1, day 14
  inhibition of viraemia: 87%
HIV-1; read-out: Inhibit rate (%), 1.56 μg/ml, 1000 TCID50 (first column pair), 7 days
  inhibition at 1.56 µg/mL: 7.2%
HIV-1; read-out: Inhibit rate (%), 1.56 μg/ml, 1000 TCID50 (second column pair), 7 days
  inhibition at 1.56 µg/mL: 8.1%
HIV-1; read-out: Inhibit rate (%), 3.12 μg/ml, 1000 TCID50 (first column pair), 7 days
  inhibition at 3.12 µg/mL: 21.1%
HIV-1; read-out: Inhibit rate (%), 3.12 μg/ml, 1000 TCID50 (second column pair), 7 days
  inhibition at 3.12 µg/mL: 19%
HIV-1; read-out: Inhibit rate (%), 6.25 μg/ml, 1000 TCID50 (first column pair), 7 days
  inhibition at 6.25 µg/mL: 40%
HIV-1; read-out: Inhibit rate (%), 6.25 μg/ml, 1000 TCID50 (second column pair), 7 days
  inhibition at 6.25 µg/mL: 44.3%
HIV-1; read-out: Inhibit rate (%), 12.5 μg/ml, 1000 TCID50 (first column pair), 7 days
  inhibition at 12.5 µg/mL: 55%
HIV-1; read-out: Inhibit rate (%), 12.5 μg/ml, 1000 TCID50 (second column pair), 7 days
  inhibition at 12.5 µg/mL: 56.5%
HIV-1; read-out: Inhibit rate (%), 25 μg/ml, 1000 TCID50 (first column pair), 7 days
  inhibition at 25 µg/mL: 69.9%
HIV-1; read-out: Inhibit rate (%), 25 μg/ml, 1000 TCID50 (second column pair), 7 days
  inhibition at 25 µg/mL: 63.7%
HIV-1; read-out: Inhibit rate (%), 50 μg/ml, 1000 TCID50 (first column pair), 7 days
  inhibition at 50 µg/mL: 74.8%
HIV-1; read-out: Inhibit rate (%), 50 μg/ml, 1000 TCID50 (second column pair), 7 days
  inhibition at 50 µg/mL: 60.6%
HIV-1; read-out: Inhibit rate (%), 100 μg/ml, 1000 TCID50 (first column pair), 7 days
  inhibition at 100 µg/mL: 61.5%
HIV-1; read-out: Inhibit rate (%), 100 μg/ml, 1000 TCID50 (second column pair), 7 days
  inhibition at 100 µg/mL: 57.7%
